Experimental data published in patent publication US20110212169A1, “METHOD FOR PRODUCING POWDER CONTAINING NANOPARTICULATED SPARINGLY SOLUBLE DRUG, POWDER PRODUCED THEREBY AND PHARMACEUTICAL COMPOSITION CONTAINING SAME (As Amended)” (Amorepacific Corporation, priority 2008, published 2011).

Test: Particle size of drug after redispersion in distilled water (laser scattering particle size analyzer)
Format: physicochemical
Protocol: Each powder (0.01 g) was redispersed in distilled water (5 mL) and particle size was measured. Electron microscopic images of the powders when the concentration of the carageenan solution was 0.1 wt % and 2 wt % are shown in FIGS. 2a and 2b, respectively. The redispersion was conducted by lightly shaking the mixture with a hand. The particle size was measured under aqueous condition using a laser scattering particle size analyzer (LA 910, Horiba, Japan) (Mie & Fraunhofer, relative refraction index=1). The resolving power of the ultrasonic disperser used for the particle size measurement was 40 W (39 kHz), and the speed of stirring and circulation was 340 mL/min. The particle size measurement was made after performing ultrasonic dispersion for 1 minute.

Q: Which Average particle size (carageenan 5 wt %, freeze dried powder redispersed in distilled water, different drugs) does the source give for `C=CC[C@@H]1/C=C(\C)C[C@H](C)C[C@H](OC)[C@H]2O[C@@](O)(C(=O)C(=O)N3CCCC[C@H]3C(=O)O[C@H](/C(C)=C/[C@@H]3CC[C@@H](O)[C@H](OC)C3)[C@H](C)[C@@H](O)CC1=O)[C@H](C)C[C@@H]2OC` [Tacrolimus, tacrolimus] here?
A: 0.16 (±0.09) μm

Q: Which Average particle size (1 wt % carageenan, hot air drying at 40 °C, redispersed in distilled water) does the source give for `COc1ccc2cc([C@H](C)C(=O)O)ccc2c1` [naproxen] here?
A: 0.39 (±1.01) μm

Q: And the Average particle size (1 wt % carageenan, hot air drying at 60 °C, redispersed in distilled water)?
A: 0.36 (±0.29) μm

Q: What about the drug particle size (alginic acid 1 wt %, vacuum drying at room temperature, redispersed in distilled water) of the same compound?
A: 0.31 (±0.41)

Q: What about the drug particle size (alginic acid 2 wt %, vacuum drying at room temperature, redispersed in distilled water) of the same compound?
A: 0.19 (±0.05)

Q: What about the Average particle size (carageenan 0.1 wt %, freeze dried powder redispersed in distilled water) of the same compound?
A: 0.91 (±2.00) μm

Q: What about the Average particle size (carageenan 0.5 wt %, freeze dried powder redispersed in distilled water) of the same compound?
A: 0.31 (±0.10) μm

Q: And the Average particle size (carageenan 0.5 wt %, vacuum drying at room temperature, redispersed in distilled water)?
A: 0.36 (±0.71) μm

Q: And the Average particle size (carageenan 1 wt %, freeze dried powder redispersed in distilled water)?
A: 0.28 (±0.08) μm

Q: What about the Average particle size (carageenan 1 wt %, vacuum drying at room temperature, redispersed in distilled water) of the same compound?
A: 0.26 (±0.06) μm

Q: And the Average particle size (carageenan 2 wt %, freeze dried powder redispersed in distilled water)?
A: 0.23 (±0.06) μm

Q: What about the Average particle size (carageenan 2 wt %, vacuum drying at room temperature, redispersed in distilled water) of the same compound?
A: 0.21 (±0.06) μm

Q: And the Average particle size (carageenan 3 wt %, freeze dried powder redispersed in distilled water)?
A: 0.26 (±0.07) μm

Q: And the Average particle size (carageenan 3 wt %, vacuum drying at room temperature, redispersed in distilled water)?
A: 0.23 (±0.06) μm

Q: What about the Average particle size (carageenan 5 wt %, freeze dried powder redispersed in distilled water) of the same compound?
A: 0.12 (±0.05) μm

Q: What about the drug particle size (gelatin 1 wt %, freeze drying, redispersed in distilled water) of the same compound?
A: 0.45 (±0.89)

Q: And the drug particle size (gelatin 2 wt %, freeze drying, redispersed in distilled water)?
A: 0.16 (±0.08)

Q: And the drug particle size (gelatin 3 wt %, freeze drying, redispersed in distilled water)?
A: 0.13 (±0.06)

Q: And the drug particle size (gelatin 3 wt %, vacuum drying at room temperature, redispersed in distilled water)?
A: 0.36 (±0.10)

Q: What about the drug particle size (gelatin 5 wt %, freeze drying, redispersed in distilled water) of the same compound?
A: 0.16 (±0.05)

Q: What about the Average particle size (naproxen concentration 16 wt %, carageenan 0.5 wt %, freeze dried, redispersed in distilled water) of the same compound?
A: 0.56 (±1.20) μm

Q: And the Average particle size (naproxen concentration 16 wt %, carageenan 1 wt %, freeze dried, redispersed in distilled water)?
A: 0.22 (±0.07) μm

Q: What about the “average particle size of the naproxen particles” value (slurry mixture after wet grinding (before drying) redispersed in distilled water) of the same compound?
A: 0.10 μm
